Read-outs that look alike come from different tables or passages of the source.
Experiments:
[1] = target: T1, α7-5HT3 (Homo sapiens, UniProt P36544, M226I/T225I); test: Agonist potency (EC50), HEK cells expressing chimeric channel; assay type: cell-based, human α7 nAChR LBD, murine 5HT3 IPD
T1 construct: expressed in transfected cells; host or cells: HEK cells

[2] = target: T2, α7^Q79A-5HT3 (Homo sapiens, UniProt P36544, M226I/Q79A/T225I); test: as above; assay type: cell-based, human α7 nAChR LBD, murine 5HT3 IPD; settings: read-out: Mean EC50, α7^Q79A-5HT3
T2 construct: expressed in transfected cells; host or cells: HEK cells
T2 sequence (P36544 with tags, fused parts or gaps Q79A/T225I/M226I): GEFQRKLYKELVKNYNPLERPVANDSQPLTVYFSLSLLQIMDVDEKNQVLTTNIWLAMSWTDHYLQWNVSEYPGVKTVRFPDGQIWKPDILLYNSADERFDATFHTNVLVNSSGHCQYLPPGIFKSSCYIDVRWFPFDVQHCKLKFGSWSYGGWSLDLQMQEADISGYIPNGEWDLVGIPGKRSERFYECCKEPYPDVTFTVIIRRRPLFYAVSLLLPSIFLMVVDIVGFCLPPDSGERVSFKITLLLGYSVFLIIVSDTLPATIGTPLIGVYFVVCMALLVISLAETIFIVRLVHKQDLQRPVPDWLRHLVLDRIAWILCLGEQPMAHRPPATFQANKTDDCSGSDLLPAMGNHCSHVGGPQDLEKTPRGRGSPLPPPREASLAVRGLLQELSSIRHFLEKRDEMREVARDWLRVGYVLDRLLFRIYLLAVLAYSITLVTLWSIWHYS

[3] = target: T3, α7^Q79S-5HT3 (Homo sapiens, UniProt P36544, M226I/Q79S/T225I); test: as above; assay type: cell-based, human α7 nAChR LBD, murine 5HT3 IPD; settings: read-out: Mean EC50, α7^Q79S-5HT3
T3 construct: expressed in transfected cells; host or cells: HEK cells
T3 sequence (P36544 with tags, fused parts or gaps Q79S/T225I/M226I): as the sequence (P36544 with tags, fused parts or gaps Q79A/T225I/M226I) above, with A57S counted along it

[4] = target: T4, α7^Q79G-GlyR (Homo sapiens, UniProt P36544, Q79G); test: as above; assay type: cell-based
T4 construct: expressed in transfected cells; host or cells: HEK cells
T4 sequence (P36544 with tags, fused parts or gaps Q79G): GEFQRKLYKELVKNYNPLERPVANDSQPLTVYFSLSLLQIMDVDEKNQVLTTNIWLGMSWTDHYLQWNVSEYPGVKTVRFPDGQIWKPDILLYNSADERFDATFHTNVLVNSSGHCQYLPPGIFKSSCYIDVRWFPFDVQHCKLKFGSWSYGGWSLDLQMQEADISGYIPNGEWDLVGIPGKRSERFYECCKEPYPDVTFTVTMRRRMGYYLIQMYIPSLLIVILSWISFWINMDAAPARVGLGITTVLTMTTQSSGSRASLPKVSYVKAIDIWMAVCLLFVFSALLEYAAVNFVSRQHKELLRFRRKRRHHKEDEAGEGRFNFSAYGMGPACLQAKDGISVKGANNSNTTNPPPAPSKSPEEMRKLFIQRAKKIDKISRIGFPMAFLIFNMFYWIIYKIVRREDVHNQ

[5] = target: T5, α7^Q79S-GlyR (Homo sapiens, UniProt P36544, Q79S); test: as above; assay type: cell-based
T5 construct: expressed in transfected cells; host or cells: HEK cells
T5 sequence (P36544 with tags, fused parts or gaps Q79S): as the sequence (P36544 with tags, fused parts or gaps Q79G) above, with G57S counted along it

[6] = target: T6, α7^G175K-GlyR (Homo sapiens, UniProt P36544, G175K); test: Agonist potency at chimeric channel; assay type: cell-based
T6 construct: expressed in transfected cells
T6 sequence (P36544 with tags, fused parts or gaps G175K): as the sequence (P36544 with tags, fused parts or gaps Q79G) above, with G57Q, G153K counted along it

[7] = target: T7, α7^Y115F,G175K-GlyR (Homo sapiens, UniProt P36544, G175K/Y115F); test: Agonist potency at chimeric channel; assay type: cell-based
T7 construct: expressed in transfected cells
T7 sequence (P36544 with tags, fused parts or gaps Y115F/G175K): as the sequence (P36544 with tags, fused parts or gaps Q79G) above, with G57Q, Y93F, G153K counted along it

[8] = target: T8, α7^G175K,Y210F-GlyR (Homo sapiens, UniProt P36544, G175K/Y210F); test: Agonist potency at chimeric channel; assay type: cell-based
T8 construct: expressed in transfected cells
T8 sequence (P36544 with tags, fused parts or gaps G175K/Y210F): as the sequence (P36544 with tags, fused parts or gaps Q79G) above, with G57Q, G153K, Y188F counted along it

[9] = target: T9, α7^Q79G,G175K-GlyR (Homo sapiens, UniProt P36544, G175K/Q79G); test: Agonist potency at chimeric channel; assay type: cell-based
T9 construct: expressed in transfected cells
T9 sequence (P36544 with tags, fused parts or gaps Q79G/G175K): as the sequence (P36544 with tags, fused parts or gaps Q79G) above, with G153K counted along it

[10] = target: T10, α7^W77F,Q79G,G175K-GlyR (Homo sapiens, UniProt P36544, G175K/Q79G/W77F); test: Agonist potency at chimeric channel; assay type: cell-based
T10 construct: expressed in transfected cells
T10 sequence (P36544 with tags, fused parts or gaps W77F/Q79G/G175K): as the sequence (P36544 with tags, fused parts or gaps Q79G) above, with W55F, G153K counted along it

[11] = target: T11, α7GlyR W77F Q79G Y115F G175K (Homo sapiens, UniProt P36544, G175K/Q79G/W77F/Y115F); test: Agonist potency at chimeric channel; assay type: cell-based
T11 construct: expressed in transfected cells
T11 sequence (P36544 with tags, fused parts or gaps W77F/Q79G/Y115F/G175K): as the sequence (P36544 with tags, fused parts or gaps Q79G) above, with W55F, Y93F, G153K counted along it

[12] = target: T12, α7^W77F,G175K,Y210F-GlyR (Homo sapiens, UniProt P36544, G175K/W77F/Y210F); test: Agonist potency at chimeric channel; assay type: cell-based
T12 construct: expressed in transfected cells
T12 sequence (P36544 with tags, fused parts or gaps W77F/G175K/Y210F): as the sequence (P36544 with tags, fused parts or gaps Q79G) above, with W55F, G57Q, G153K, Y188F counted along it

[13] = target: T13, α7^Q79G,Y115F,G175K-GlyR (Homo sapiens, UniProt P36544, G175K/Q79G/Y115F); test: Agonist potency at chimeric channel; assay type: cell-based
T13 construct: expressed in transfected cells
T13 sequence (P36544 with tags, fused parts or gaps Q79G/Y115F/G175K): as the sequence (P36544 with tags, fused parts or gaps Q79G) above, with Y93F, G153K counted along it

[14] = target: T14, α7GlyR Q79G Y115F G175K Y210F (Homo sapiens, UniProt P36544, G175K/Q79G/Y115F/Y210F); test: Agonist potency at chimeric channel; assay type: cell-based
T14 construct: expressed in transfected cells
T14 sequence (P36544 with tags, fused parts or gaps Q79G/Y115F/G175K/Y210F): as the sequence (P36544 with tags, fused parts or gaps Q79G) above, with Y93F, G153K, Y188F counted along it

[15] = target: T15, α7^L141F,Y115F,G175K-GlyR (Homo sapiens, UniProt P36544, G175K/L141F/Y115F); test: Agonist potency at chimeric channel; assay type: cell-based
T15 construct: expressed in transfected cells
T15 sequence (P36544 with tags, fused parts or gaps Y115F/L141F/G175K): as the sequence (P36544 with tags, fused parts or gaps Q79G) above, with G57Q, Y93F, L119F, G153K counted along it

[16] = target: T16, α7^Q79G,Q139L,G175K-GlyR (Homo sapiens, UniProt P36544, G175K/Q139L/Q79G); test: Agonist potency at chimeric channel; assay type: cell-based
T16 construct: expressed in transfected cells
T16 sequence (P36544 with tags, fused parts or gaps Q79G/Q139L/G175K): as the sequence (P36544 with tags, fused parts or gaps Q79G) above, with Q117L, G153K counted along it

[17] = target: T17, α7^L131A-GlyR (Homo sapiens, UniProt P36544, L131A); test: Agonist potency at chimeric channel (Table 9); assay type: cell-based
T17 construct: expressed in transfected cells
T17 sequence (P36544 with tags, fused parts or gaps L131A): as the sequence (P36544 with tags, fused parts or gaps Q79G) above, with G57Q, L109A counted along it

[18] = target: T18, α7^L131G-GlyR (Homo sapiens, UniProt P36544, L131G); test: Agonist potency at chimeric channel (Table 9); assay type: cell-based
T18 construct: expressed in transfected cells
T18 sequence (P36544 with tags, fused parts or gaps L131G): as the sequence (P36544 with tags, fused parts or gaps Q79G) above, with G57Q, L109G counted along it

[19] = target: T19, α7^L131G-5HT3 HC (Homo sapiens, UniProt P36544, L131G, form not given); test: Agonist potency at chimeric channel (Table 9); assay type: cell-based; settings: read-out: Agonist potency
T19 construct: rows headed: Agonist potency; other: α75HT3 L131G HC; α75HT3 L131G HC; fused on or other part: 5-HT3A receptor ion pore domain at the C-terminus
T19 sequence (P36544 23-224 L131G limits assumed, form open): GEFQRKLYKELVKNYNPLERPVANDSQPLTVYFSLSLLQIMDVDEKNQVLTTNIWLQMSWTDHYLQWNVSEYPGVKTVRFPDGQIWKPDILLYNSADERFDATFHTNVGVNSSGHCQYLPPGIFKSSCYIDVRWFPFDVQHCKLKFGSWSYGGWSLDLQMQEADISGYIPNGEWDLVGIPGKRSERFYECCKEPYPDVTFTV

[20] = target: T20, α7^L131G,Q139L-GlyR (Homo sapiens, UniProt P36544, L131G/Q139L); test: Agonist potency at chimeric channel (Table 9); assay type: cell-based
T20 construct: expressed in transfected cells
T20 sequence (P36544 with tags, fused parts or gaps L131G/Q139L): as the sequence (P36544 with tags, fused parts or gaps Q79G) above, with G57Q, L109G, Q117L counted along it

[21] = target: T21, α7^L131G,Y217F-GlyR (Homo sapiens, UniProt P36544, L131G/Y217F); test: Agonist potency at chimeric channel (Table 9); assay type: cell-based
T21 construct: expressed in transfected cells
T21 sequence (P36544 with tags, fused parts or gaps L131G/Y217F): as the sequence (P36544 with tags, fused parts or gaps Q79G) above, with G57Q, L109G, Y195F counted along it

[22] = target: T22, α7^Q79S,L131G-GlyR (Homo sapiens, UniProt P36544, L131G/Q79S); test: Agonist potency at chimeric channel (Table 9); assay type: cell-based
T22 construct: expressed in transfected cells
T22 sequence (P36544 with tags, fused parts or gaps Q79S/L131G): as the sequence (P36544 with tags, fused parts or gaps Q79G) above, with G57S, L109G counted along it

[23] = target: T23, α7^L131M-GlyR (Homo sapiens, UniProt P36544, L131M); test: Agonist potency at chimeric channel (Table 9); assay type: cell-based
T23 construct: expressed in transfected cells
T23 sequence (P36544 with tags, fused parts or gaps L131M): as the sequence (P36544 with tags, fused parts or gaps Q79G) above, with G57Q, L109M counted along it

[24] = target: T24, α7^L131Q-GlyR (Homo sapiens, UniProt P36544, L131Q); test: Agonist potency at chimeric channel (Table 9); assay type: cell-based
T24 construct: expressed in transfected cells
T24 sequence (P36544 with tags, fused parts or gaps L131Q): as the sequence (P36544 with tags, fused parts or gaps Q79G) above, with G57Q, L109Q counted along it

[25] = target: T25, α7^L131V-GlyR (Homo sapiens, UniProt P36544, L131V); test: Agonist potency at chimeric channel (Table 9); assay type: cell-based
T25 construct: expressed in transfected cells
T25 sequence (P36544 with tags, fused parts or gaps L131V): as the sequence (P36544 with tags, fused parts or gaps Q79G) above, with G57Q, L109V counted along it

[26] = system: α7GlyR chimeric channels with G175K and A298G mutations; assay type: cell-based, human
[27] = target: T26, α7GlyR R27D E41R Q79G Y115F (Homo sapiens, UniProt P36544, E41R/Q79G/R27D/Y115F); test: Agonist potency at chimeric channel (Table 7); assay type: cell-based
T26 construct: expressed in transfected cells
T26 sequence (P36544 with tags, fused parts or gaps R27D/E41R/Q79G/Y115F): as the sequence (P36544 with tags, fused parts or gaps Q79G) above, with R5D, E19R, Y93F counted along it

[28] = target: T27, α7GlyR L131G D219A (Homo sapiens, UniProt P36544, D219A/L131G); test: Agonist potency at chimeric channel (Table 9); assay type: cell-based
T27 construct: expressed in transfected cells
T27 sequence (P36544 with tags, fused parts or gaps L131G/D219A): as the sequence (P36544 with tags, fused parts or gaps Q79G) above, with G57Q, L109G, D197A counted along it

T1 sequence (P36544 with tags, fused parts or gaps T225I/M226I): as the sequence (P36544 with tags, fused parts or gaps Q79A/T225I/M226I) above, with A57Q counted along it

Structure (SMILES)	EC50 [4] [nM]	EC50 [5] [nM]	EC50 [6] [nM]	EC50 [7] [nM]	EC50 [8] [nM]	EC50 [9] [nM]	EC50 [10] [nM]	EC50 [12] [nM]	EC50 [13] [nM]	EC50 [14] [nM]	EC50 [15] [nM]	EC50 [16] [nM]	EC50 [17] [nM]	EC50 [18] [nM]	EC50 [20] [nM]	EC50 [21] [nM]	EC50 [22] [nM]	EC50 [23] [nM]	EC50 [24] [nM]	EC50 [25] [nM]	other results
O=C(NC1CN2CCC1CC2)c1ccc(Cl)cc1 (stereo not shown) [PNU-282987]	26	14	5	100	700	60	500	> 40000	80	> 1000	510	50	55	34	63	54	6	21	48	64	EC50 ([1]; read-out: Mean EC50, α7-5HT3): 220 nM; EC50 ([1]; read-out: α7-5HT3 EC50): 220 nM; EC50 [2]: 37 nM; EC50 [3]: 23 nM; EC50 [11]: > 1000 nM; EC50 [19]: 33 nM; EC50 ([26]; read-out: Agonist potency; α7GlyR Q79G A298G G175K Y115F): 9 nM; EC50 ([26]; read-out: Agonist potency; α7GlyR Q79G A298G P2161): 250 nM; EC50 ([26]; read-out: Agonist potency; α7GlyR Q79G A298G Y115F K395 K396A): 110 nM; EC50 ([26]; read-out: Agonist potency; α7GlyR Q79G G175K A298G): 0.36 nM; EC50 ([26]; read-out: Agonist potency; α7GlyR Q79G W77F A298G): 1630 nM; EC50 [27]: 340 nM; EC50 [28]: 410 nM
Clc1ccc(C2CC3CCC2N3)cn1 (stereo not shown) [Epibatidine]	69	24	5	36	650	37	2600	380	220	> 10000	144	144	27	9	12	15	7	42	27	210	EC50 ([1]; read-out: Mean EC50, α7-5HT3, HEK cells, Table 1): 53 nM; EC50 ([2]; HEK cells, Table 1): 67 nM; EC50 ([3]; HEK cells, Table 1): 44 nM; EC50 ([19]; α75HT3 L131G HC): 9 nM; EC50 ([26]; α7GlyR Q79G A298G G175K Y115F; read-out: Agonist potency): 11 nM; EC50 ([26]; α7GlyR Q79G A298G P2161; read-out: Agonist potency): 50 nM; EC50 ([26]; α7GlyR Q79G A298G Y115F K395 K396A; read-out: Agonist potency): 150 nM; EC50 ([26]; α7GlyR Q79G G175K A298G; read-out: Agonist potency): 2.3 nM; EC50 ([26]; α7GlyR Q79G W77F A298G; read-out: Agonist potency): 370 nM; EC50 [27]: 267 nM; EC50 [28]: 160 nM

From patent publication US11124554B2, “Modified ligand-gated ion channels and methods of use” (Howard Hughes Medical Institute, priority 2016, dated 2021)
